The results in this text go back to patent US20230242496A1, “SOX11 INHIBITORS FOR TREATING MANTLE CELL LYMPHOMA” (Icahn School of Medicine At Mount Sinai, priority 2020, published 2023).

pIC50, pKd: −log10 of the molar value.

One experiment has as its target T1, (His)6-SOX11-DBD protein (Homo sapiens, UniProt P35716).
T1 construct: Recombinant (His)6-SOX11-DBD protein was immobilized
T1 sequence (P35716 49-117 limits assumed): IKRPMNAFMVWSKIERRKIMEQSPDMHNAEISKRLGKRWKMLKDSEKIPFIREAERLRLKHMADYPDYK
The experiment can be described thus: Surface Plasmon Resonance (SPR) assay. The settings on record: immobilized recombinant (His)6-SOX11-DBD, 25° C., compounds 5-40 μM, mean of three experiments. The format is binding. The protocol:
Surface Plasmon Resonance (SPR) Assay
Recombinant (His)6-SOX11-DBD protein was immobilized at a flow rate of 10 μl/min for 180 seconds to the right channel of a gold-coated SCR NiHC200M sensor chip (XanTec bioanalytics) placed in a Reichert 2SPR instrument (Reichert Technologies). The left channel, without immobilized protein, was used as a reference. […] Compounds flowed sequentially from the left to the right channel over the prepared sensor chip surface. 120 seconds association phase with each compound concentration was followed by 300 seconds dissociation phase with the assay buffer alone. The ka, kd, and KD values were determined from the sensograms for at least 3 concentrations of each compound by curve fitting the data using Reichert's TraceDrawer software. The mean KD value for each compound was calculated from three separate experiments.

A further experiment deals with Jeko-1 (SOX11+). The experiment can be described thus: Cell viability assay (CellTiter-Blue resazurin reduction). The settings on record: Homo sapiens, JeKo-1 cells; for viability at 20 µM: 20 μM compound, normalized to 0.2% DMSO; for pIC50: 0-40 μM. In kind it is cell-based. The protocol: Cell viability was determined by a fluorometric resazurin reduction method (CellTiter-Blue; Promega, Madison, Wis.) following the manufacturer's instructions. […] Cells were incubated for 72 hours. After incubation, 20 μl CellTiter-Blue Cell was added to each well and incubated for another 2 hours. […] The number of viable cells in each treated well was calculated, based on the linear least squares regression of the standard curve (OD vs. cell concentration). The viability of cells treated with compounds was normalized to the viability of cells treated with 0.2% Dimethyl sulfoxide (DMSO). Cell counts were confirmed with Trypan Blue Exclusion Assay on the Countess automated cell counter (Invitrogen) according to the manufacturer's specifications. The average and mean standard deviation were calculated from three separate experiments. IC50 values were calculated using the GraphPad Prism (version 4.00) based on a sigmoidal dose-response equation.
Background: The colour change of resazurin is a common sign of viable cells or microbes.

The pKd is the Kd on a negative log10 scale, so that one unit is a factor of ten. By viability is commonly meant a read-out of living cells in per cent, often relative to untreated cells. Usually pIC50 stands for the negative decadic logarithm of the IC50, by convention in mol/L.

Turning to `CC1Sc2ccc(C(=O)Nc3cccc(CNc4ccc(OS(=O)(=O)F)cc4)c3)cc2NC1=O` (centres unmarked), on (His)6-SOX11-DBD protein, the pKd was 5.45. Also, in the experiment with Jeko-1 (SOX11+) (72 hours), the viability at 20 µM worked out at 4.81% and the pIC50 is 5.00.

As to `CC1Sc2ccc(C(=O)Nc3cccc(S(=O)(=O)Nc4cccc(F)c4)c3)cc2NC1=O` (centres unmarked), the pKd on (His)6-SOX11-DBD protein was 6.20. For the same compound, in the experiment on Jeko-1 (SOX11+) (JeKo-1, 72 h), the pIC50 is 5.00 and the viability at 20 µM was found to be 13.1%.

Take `CC1Sc2ccc(C(=O)Nc3cccc(CNc4cccc(S(=O)(=O)F)c4)c3)cc2NC1=O` (centres unmarked): the pKd at (His)6-SOX11-DBD protein is 5.72. Further, in the experiment on Jeko-1 (SOX11+) (72 hours), the viability at 20 µM came to 44.3% and the pIC50 is 4.72.

With `CC1Sc2ccc(C(=O)Nc3cccc(S(=O)(=O)N4CCCCC4)c3)cc2NC1=O` (centres unmarked), the negative-log Kd (pKd) on (His)6-SOX11-DBD protein is 4.38. Besides, in the experiment on Jeko-1 (SOX11+) (JeKo-1, 72 h), the pIC50 is 5.00 and the viability at 20 µM was found to be 0.6%.

As for `CC1Sc2ccc(C(=O)Nc3ccc(S(=O)(=O)NC4CC4)cc3)cc2NC1=O` (centres unmarked), on (His)6-SOX11-DBD protein, the pKd was 4.72. Moreover, in the experiment with Jeko-1 (SOX11+) (JeKo-1, 72 h), the negative-log IC50 (pIC50) is 5.15 and the viability at 20 µM amounted to 14.9%.

Regarding `O=C(Nc1ccc2cccnc2c1)c1ccc(OCc2ccccc2)cc1`, on (His)6-SOX11-DBD protein, the pKd is 5.45. Besides, in the experiment with Jeko-1 (SOX11+) (JeKo-1, 72 h), the pIC50 is 5.10 and the viability at 20 µM stood at 22.8%.

For `CC(C)NS(=O)(=O)c1cccc(NC(=O)c2ccc3c(c2)NC(=O)C(C)S3)c1` (centres unmarked), the pKd at (His)6-SOX11-DBD protein was 4.04. Besides, in the experiment with Jeko-1 (SOX11+) (JeKo-1, 72 h), the pIC50 is 5.10 and the viability at 20 µM was 17.6%.

Take `CC1Sc2ccc(C(=O)Nc3ccc(S(=O)(=O)NC4CCNCC4)cc3)cc2NC1=O` (centres unmarked): the pKd at (His)6-SOX11-DBD protein was 4.00. In addition, in the experiment on Jeko-1 (SOX11+) (JeKo-1, 72 h), the pIC50 is less than 4.70 and the viability at 20 µM came to 80.7%.

For the compound `CC1Sc2ccc(C(=O)Nc3cccc(OCc4ccccc4)c3)cc2NC1=O` (centres unmarked), the pKd at (His)6-SOX11-DBD protein is 4.86. In addition, in the experiment on Jeko-1 (SOX11+) (JeKo-1, 72 h), the viability at 20 µM is 107%.

Take `CC1Sc2ccc(C(=O)Nc3ccc(CN4CCCCC4)cc3)cc2NC1=O` (centres unmarked): on (His)6-SOX11-DBD protein, the pKd is 5.46. In the experiment with Jeko-1 (SOX11+) (JeKo-1, 72 h), the viability at 20 µM was determined as 108%.

Consider `CC1Sc2ccc(C(=O)Nc3cccc(S(=O)(=O)NC4CCCC4)c3)cc2NC1=O` (centres unmarked), for which the pKd at (His)6-SOX11-DBD protein was 4.81. For the same compound, in the experiment with Jeko-1 (SOX11+) (JeKo-1, 72 h), the pIC50 is 4.80 and the viability at 20 µM is 38.5%.

As to `CC1Sc2ccc(C(=O)Nc3cccc(S(=O)(=O)Nc4ccc(C(F)(F)F)cc4)c3)cc2NC1=O` (centres unmarked), the pKd on (His)6-SOX11-DBD protein was 5.67. Also, in the experiment on Jeko-1 (SOX11+) (JeKo-1, 72 h), the pIC50 is more than 4.70 and the viability at 20 µM came out at 22.2%.

With `O=C(Nc1ccc(S(=O)(=O)N2CCCC2)c(Cl)c1)c1ccc2c(c1)CCCS2`, the pKd on (His)6-SOX11-DBD protein is 5.41. The viability at 20 µM with Jeko-1 (SOX11+) (JeKo-1, 72 h) amounted to 1.26%.

Regarding `CC1Sc2ccc(C(=O)N(c3ccccc3)S(=O)(=O)c3ccc(N)cc3)cc2NC1=O` (centres unmarked), the pKd on (His)6-SOX11-DBD protein was 5.11. Also, in the experiment with Jeko-1 (SOX11+) (JeKo-1, 72 h), the pIC50 was less than 4.70 and the viability at 20 µM was found to be 91.2%.

For `O=C(Nc1ccc(S(=O)(=O)Nc2ccccc2)cc1)c1ccc2cncnc2c1`, the pKd at (His)6-SOX11-DBD protein is 3.65. For the same compound, in the experiment with Jeko-1 (SOX11+) (JeKo-1, 72 h), the pIC50 was less than 4.70 and the viability at 20 µM was found to be 100%.

`CC1Sc2ccc(C(=O)Nc3cccc(S(=O)(=O)NC4CCN(C(=O)OC(C)(C)C)CC4)c3)cc2NC1=O` (centres unmarked): the negative logarithm of the Kd (pKd) on (His)6-SOX11-DBD protein is 3.85. Moreover, in the experiment with Jeko-1 (SOX11+) (JeKo-1, 72 h), the pIC50 was 4.82 and the viability at 20 µM was found to be 13%.

With `CN(c1ccccc1)S(=O)(=O)c1cccc(NC(=O)c2ccc3snnc3c2)c1`, the pKd on (His)6-SOX11-DBD protein was 5.08. In addition, in the experiment on Jeko-1 (SOX11+) (JeKo-1, 72 h), the pIC50 was 5.00 and the viability at 20 µM was found to be 10.6%.

Take `Cc1ccccc1NS(=O)(=O)c1cccc(NC(=O)c2ccc3c(c2)NC(=O)C(C)S3)c1` (centres unmarked): the pKd at (His)6-SOX11-DBD protein is 5.13. Also, in the experiment with Jeko-1 (SOX11+) (JeKo-1, 72 h), the pIC50 is 5.22 and the viability at 20 µM was found to be 6.11%.

With `CC1Sc2ccc(C(=O)Nc3ccc(S(N)(=O)=O)cc3)cc2NC1=O` (centres unmarked), the negative logarithm of the Kd (pKd) on (His)6-SOX11-DBD protein was 4.08. For the same compound, in the experiment with Jeko-1 (SOX11+) (JeKo-1, 72 h), the pIC50 is less than 4.70 and the viability at 20 µM was found to be 101%.

Consider `CC1Sc2ccc(C(=O)Nc3cccc(S(=O)(=O)Nc4ccccc4F)c3)cc2NC1=O` (centres unmarked), for which, on (His)6-SOX11-DBD protein, the pKd is 4.54. In addition, in the experiment on Jeko-1 (SOX11+) (JeKo-1, 72 h), the pIC50 is 4.89 and the viability at 20 µM came out at 22.7%.

For the compound `CC1Sc2ccc(C(=O)Nc3ncc(S(=O)(=O)Nc4ccccc4)s3)cc2NC1=O` (centres unmarked), the pKd at (His)6-SOX11-DBD protein was 5.51. For the same compound, in the experiment with Jeko-1 (SOX11+) (JeKo-1, 72 h), the pIC50 was less than 4.70 and the viability at 20 µM worked out at 88%.

Turning to `CC1Sc2ccc(C(=O)Nc3ccc(CN4CCCC4)cc3)cc2NC1=O` (centres unmarked), the pKd at (His)6-SOX11-DBD protein is 4.15. In addition, the viability at 20 µM with Jeko-1 (SOX11+) (JeKo-1, 72 h) turned out to be 104%.

Regarding `CN1C(=O)CSc2ccc(C(=O)Nc3ccc(CN4CCCCCC4)cc3)cc21`, the negative-log Kd (pKd) on (His)6-SOX11-DBD protein was 5.16. Also, in the experiment with Jeko-1 (SOX11+) (JeKo-1, 72 h), the pIC50 is less than 4.70 and the viability at 20 µM was 102%.
